Data published in patent US8952024B2, “Herbicidal pyrimidone derivatives” (E I du Pont de Nemours and Company, priority 2009, dated 2015).
Like-named read-outs stand apart in the source and are kept apart here.

Key:
Assay type in all cases: in vivo
[1] = test system: barnyardgrass (Echinochloa crus-galli); test: Test A pre-/postemergence plant response; conditions: Echinochloa crus-galli, 240 h; for pest or weed control at 125 g/ha: 125 g ai/ha; for pest or weed control at 500 g/ha: 500 g ai/ha
In short: (§1)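 Injury was scored visually after roughly ten days against untreated controls, 0 = no effect, 100 = complete control. Test chemicals in a surfactant-containing non-phytotoxic solvent were sprayed either onto soil preemergence or onto one- to two-leaf, 2–10 cm plants postemergence.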

corn (Zea mays) = test: Test A pre-/postemergence plant response; conditions: Zea mays, 240 h; for Corn plant response rating (crop injury, 0 = no effect, 100 = complete kill) at 500 g/ha: 500 g ai/ha
In short: as §1

[2] = test system: giant foxtail (Setaria faberii); test: Test A pre-/postemergence plant response; conditions: Setaria faberi, 240 h; for pest or weed control at 125 g/ha: 125 g ai/ha; for pest or weed control at 500 g/ha: 500 g ai/ha
In short: as §1

[3] = test system: large crabgrass (Digitaria sanguinalis); test: Test A pre-/postemergence plant response; conditions: Digitaria sanguinalis, 240 h; for pest or weed control at 125 g/ha: 125 g ai/ha; for pest or weed control at 500 g/ha: 500 g ai/ha
In short: as §1

[4] = test system: morningglory (Ipomoea spp.); test: Test A pre-/postemergence plant response; conditions: Ipomoea, 240 h; for pest or weed control at 125 g/ha: 125 g ai/ha; for pest or weed control at 500 g/ha: 500 g ai/ha
In short: as §1

[5] = test system: pigweed (Amaranthus retroflexus); test: Test A pre-/postemergence plant response; conditions: Amaranthus retroflexus, 240 h; for pest or weed control at 125 g/ha: 125 g ai/ha; for pest or weed control at 500 g/ha: 500 g ai/ha
In short: as §1

[6] = test system: velvetleaf (Abutilon theophrasti); test: Test A pre-/postemergence plant response; conditions: Abutilon theophrasti, 240 h; for pest or weed control at 125 g/ha: 125 g ai/ha; for pest or weed control at 500 g/ha: 500 g ai/ha
In short: as §1

[7] = test system: wheat (Triticum aestivum); test: Test A pre-/postemergence plant response; conditions: Triticum aestivum, 240 h; for plant injury at 125 g/ha: 125 g ai/ha; for plant injury at 500 g/ha: 500 g ai/ha
In short: as §1

[8] = test system: windgrass (Apera spica-venti); test: Test B postemergence plant response; conditions: Apera spica-venti, post-emergence, 360 h, Postemergence
In short: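 Plants grown in peat/vermiculite medium were sprayed postemergence at 2–18 cm height (1- to 4-leaf stage). After 13–15 days in the greenhouse, response was rated visually against untreated controls on a 0–100 scale (0 no effect, 100 complete control).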

[9] = test system: barnyardgrass (Echinochloa crus-galli); test: Test B flooded paddy test; conditions: Echinochloa crus-galli, 360 h
In short: (§2)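 Visual scores run from 0 (no effect) to 100 (complete control), assigned by comparison with controls 13 to 15 days after treatment. Test compounds went straight into water standing 3 cm above the soil, around plants at the 2-leaf stage kept in a greenhouse.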

[10] = test system: ducksalad (Heteranthera limosa); test: Test B flooded paddy test; conditions: Heteranthera limosa, 360 h
In short: as §2

rice (Oryza sativa) = test: Test B flooded paddy test; conditions: Oryza sativa
In short: as §2

[11] = test system: umbrella sedge (Cyperus difformis); test: Test B flooded paddy test; conditions: Cyperus difformis, 360 h
In short: as §2

O=C1CCCC(O)=C1C(=O)c1cnc(-c2ccccc2)n(-c2ccccc2)c1=O [Compound 2, 5-[(2-hydroxy-6-oxo-1-cyclohexen-1-yl)carbonyl]-2,3-diphenyl-4(3H)-pyrimidinone]
pest or weed control at 125 g/ha ([1]; post-emergence, Postemergence, visual injury, 0 to 100 scale (0 no effect, 100 complete control), approx. ten days, read-out: Barnyardgrass plant response rating): 100%
pest or weed control at 500 g/ha ([1]; post-emergence, Postemergence, 0 to 100 scale, 0 = no effect, 100 = complete control, approx. ten days, read-out: Plant response rating, Barnyardgrass): 100%
pest or weed control at 125 g/ha ([1]; pre-emergence, Preemergence, 0 to 100 scale, 0 = no effect, 100 = complete control, read-out: Plant response rating, Barnyardgrass): 10%
pest or weed control at 500 g/ha ([1]; pre-emergence, Preemergence, visual injury, 0 to 100 scale (0 no effect, 100 complete control), approx. ten days, read-out: Plant response rating, Barnyardgrass): 70%
plant injury at 125 g/ha (corn (Zea mays); post-emergence, Postemergence, 125 g ai/ha, visual injury, 0 to 100 scale (0 no effect, 100 complete control), approx. ten days, read-out: Corn plant response rating): 30%
Corn plant response rating (crop injury, 0 = no effect, 100 = complete kill) at 500 g/ha (corn (Zea mays); post-emergence, Postemergence, 0 to 100 scale, 0 = no effect, 100 = complete control, approx. ten days): 90%
Corn plant response rating (crop injury, 0 = no effect, 100 = complete kill) at 125 g/ha (corn (Zea mays); pre-emergence, Preemergence, 125 g ai/ha, 0 to 100 scale, 0 = no effect, 100 = complete control): 0%
Corn plant response rating (crop injury, 0 = no effect, 100 = complete kill) at 500 g/ha (corn (Zea mays); pre-emergence, Preemergence, visual injury, 0 to 100 scale (0 no effect, 100 complete control), approx. ten days): 0%
pest or weed control at 125 g/ha ([2]; post-emergence, Postemergence, visual injury, 0 to 100 scale (0 no effect, 100 complete control), approx. ten days, read-out: Foxtail, Giant plant response rating): 90%
pest or weed control at 500 g/ha ([2]; post-emergence, Postemergence, 0 to 100 scale, 0 = no effect, 100 = complete control, approx. ten days, read-out: Plant response rating, Foxtail, Giant): 100%
pest or weed control at 125 g/ha ([2]; pre-emergence, Preemergence, 0 to 100 scale, 0 = no effect, 100 = complete control, read-out: Plant response rating, Foxtail, Giant): 50%
pest or weed control at 500 g/ha ([2]; pre-emergence, Preemergence, visual injury, 0 to 100 scale (0 no effect, 100 complete control), approx. ten days, read-out: Plant response rating, Foxtail, Giant): 90%
pest or weed control at 125 g/ha ([3]; post-emergence, Postemergence, visual injury, 0 to 100 scale (0 no effect, 100 complete control), approx. ten days, read-out: Crabgrass, Large plant response rating): 90%
pest or weed control at 500 g/ha ([3]; post-emergence, Postemergence, 0 to 100 scale, 0 = no effect, 100 = complete control, approx. ten days, read-out: Plant response rating, Crabgrass, Large): 100%
pest or weed control at 125 g/ha ([3]; pre-emergence, Preemergence, 0 to 100 scale, 0 = no effect, 100 = complete control, read-out: Plant response rating, Crabgrass, Large): 80%
pest or weed control at 500 g/ha ([3]; pre-emergence, Preemergence, visual injury, 0 to 100 scale (0 no effect, 100 complete control), approx. ten days, read-out: Plant response rating, Crabgrass, Large): 100%
pest or weed control at 125 g/ha ([4]; post-emergence, Postemergence, visual injury, 0 to 100 scale (0 no effect, 100 complete control), approx. ten days, read-out: Morningglory plant response rating): 90%
pest or weed control at 500 g/ha ([4]; post-emergence, Postemergence, 0 to 100 scale, 0 = no effect, 100 = complete control, approx. ten days, read-out: Plant response rating, Morningglory): 100%
pest or weed control at 125 g/ha ([4]; pre-emergence, Preemergence, 0 to 100 scale, 0 = no effect, 100 = complete control, read-out: Plant response rating, Morningglory): 60%
pest or weed control at 500 g/ha ([4]; pre-emergence, Preemergence, visual injury, 0 to 100 scale (0 no effect, 100 complete control), approx. ten days, read-out: Plant response rating, Morningglory): 90%
pest or weed control at 125 g/ha ([5]; post-emergence, Postemergence, visual injury, 0 to 100 scale (0 no effect, 100 complete control), approx. ten days, read-out: Pigweed plant response rating): 100%
pest or weed control at 500 g/ha ([5]; post-emergence, Postemergence, 0 to 100 scale, 0 = no effect, 100 = complete control, approx. ten days, read-out: Plant response rating, Pigweed): 100%
pest or weed control at 125 g/ha ([5]; pre-emergence, Preemergence, 0 to 100 scale, 0 = no effect, 100 = complete control, read-out: Plant response rating, Pigweed): 100%
pest or weed control at 500 g/ha ([5]; pre-emergence, Preemergence, visual injury, 0 to 100 scale (0 no effect, 100 complete control), approx. ten days, read-out: Plant response rating, Pigweed): 100%
pest or weed control at 125 g/ha ([6]; post-emergence, Postemergence, visual injury, 0 to 100 scale (0 no effect, 100 complete control), approx. ten days, read-out: Velvetleaf plant response rating): 100%
pest or weed control at 500 g/ha ([6]; post-emergence, Postemergence, 0 to 100 scale, 0 = no effect, 100 = complete control, approx. ten days, read-out: Plant response rating, Velvetleaf): 100%
pest or weed control at 125 g/ha ([6]; pre-emergence, Preemergence, 0 to 100 scale, 0 = no effect, 100 = complete control, read-out: Plant response rating, Velvetleaf): 60%
pest or weed control at 500 g/ha ([6]; pre-emergence, Preemergence, visual injury, 0 to 100 scale (0 no effect, 100 complete control), approx. ten days, read-out: Plant response rating, Velvetleaf): 100%
plant injury at 125 g/ha ([7]; post-emergence, Postemergence, visual injury, 0 to 100 scale (0 no effect, 100 complete control), approx. ten days, read-out: Wheat plant response rating): 0%
plant injury at 500 g/ha ([7]; post-emergence, Postemergence, 0 to 100 scale, 0 = no effect, 100 = complete control, approx. ten days, read-out: Plant response rating, Wheat): 20%
plant injury at 125 g/ha ([7]; pre-emergence, Preemergence, 0 to 100 scale, 0 = no effect, 100 = complete control, read-out: Plant response rating, Wheat): 0%
plant injury at 500 g/ha ([7]; pre-emergence, Preemergence, visual injury, 0 to 100 scale (0 no effect, 100 complete control), approx. ten days, read-out: Plant response rating, Wheat): 0%
pest or weed control at 16 g/ha ([8]; 16 g ai/ha, 0 to 100 scale, read-out: Plant response rating, Windgrass): 10%
pest or weed control at 31 g/ha ([8]; 31 g ai/ha, scale 0 to 100 (0 no effect, 100 complete control), read-out: Plant response rating, Windgrass): 10%
pest or weed control at 62 g/ha ([8]; 62 g ai/ha, scale 0 (no effect) to 100 (complete control), 13 to 15 days, read-out: Plant response rating, Windgrass): 15%
pest or weed control at 125 g/ha ([8]; 125 g ai/ha, visual rating after 13 to 15 days, scale 0 (no effect) to 100 (complete control)): 50%
pest or weed control at 250 g/ha ([9]; 250 g ai/ha, flooded paddy test, visual rating on 0 to 100 scale (0 no effect, 100 complete control) after 13 to 15 days, read-out: Plant response rating, Flood, Barnyardgrass): 0%
pest or weed control at 31 g/ha ([9]; Flood (flooded paddy test), 31 g ai/ha, scale of 0 to 100 where 0 is no effect and 100 is complete control, 13 to 15 days, read-out: Plant response rating, Barnyardgrass): 0%
pest or weed control at 62 g/ha ([9]; Flood (flooded paddy test), 62 g ai/ha, scale 0 to 100, 0 is no effect, 100 is complete control, 13 to 15 days, read-out: Plant response rating, Barnyardgrass): 0%
pest or weed control at 125 g/ha ([9]; Flood (flooded paddy test), 125 g ai/ha, scale 0 to 100, 0 is no effect, 100 is complete control, 13 to 15 days, read-out: Plant response rating, Barnyardgrass): 0%
pest or weed control at 250 g/ha ([10]; 250 g ai/ha, flooded paddy test, visual rating on 0 to 100 scale (0 no effect, 100 complete control) after 13 to 15 days, read-out: Plant response rating, Flood, Ducksalad): 78%
pest or weed control at 31 g/ha ([10]; Flood (flooded paddy test), 31 g ai/ha, scale of 0 to 100 where 0 is no effect and 100 is complete control, 13 to 15 days, read-out: Plant response rating, Ducksalad): 15%
pest or weed control at 62 g/ha ([10]; Flood (flooded paddy test), 62 g ai/ha, scale 0 to 100, 0 is no effect, 100 is complete control, 13 to 15 days, read-out: Plant response rating, Ducksalad): 40%
pest or weed control at 125 g/ha ([10]; Flood (flooded paddy test), 125 g ai/ha, scale 0 to 100, 0 is no effect, 100 is complete control, 13 to 15 days, read-out: Plant response rating, Ducksalad): 58%
plant injury at 250 g/ha (rice (Oryza sativa); 250 g ai/ha, flooded paddy test, visual rating on 0 to 100 scale (0 no effect, 100 complete control) after 13 to 15 days, read-out: Plant response rating, Flood, Rice): 8%
plant injury at 31 g/ha (rice (Oryza sativa); Flood (flooded paddy test), 31 g ai/ha, scale of 0 to 100 where 0 is no effect and 100 is complete control, 13 to 15 days, read-out: Plant response rating, Rice): 0%
plant injury at 62 g/ha (rice (Oryza sativa); Flood (flooded paddy test), 62 g ai/ha, scale 0 to 100, 0 is no effect, 100 is complete control, 13 to 15 days, read-out: Plant response rating, Rice): 0%
plant injury at 125 g/ha (rice (Oryza sativa); Flood (flooded paddy test), 125 g ai/ha, scale 0 to 100, 0 is no effect, 100 is complete control, 13 to 15 days, read-out: Plant response rating, Rice): 0%
pest or weed control at 250 g/ha ([11]; 250 g ai/ha, flooded paddy test, visual rating on 0 to 100 scale (0 no effect, 100 complete control) after 13 to 15 days, read-out: Plant response rating, Flood, Sedge, Umbrella): 75%
pest or weed control at 31 g/ha ([11]; Flood (flooded paddy test), 31 g ai/ha, scale of 0 to 100 where 0 is no effect and 100 is complete control, 13 to 15 days, read-out: Plant response rating, Sedge, Umbrella): 0%
pest or weed control at 62 g/ha ([11]; Flood (flooded paddy test), 62 g ai/ha, scale 0 to 100, 0 is no effect, 100 is complete control, 13 to 15 days, read-out: Plant response rating, Sedge, Umbrella): 0%
pest or weed control at 125 g/ha ([11]; Flood (flooded paddy test), 125 g ai/ha, scale 0 to 100, 0 is no effect, 100 is complete control, 13 to 15 days, read-out: Plant response rating, Sedge, Umbrella): 45%
